Literature values as cited in US20260232589A1, “NANOPREPARATIONS LOADED WITH TRABECTEDIN AND PACLITAXEL” (SHANGHAI JIAO TONG UNIVERSITY, priority 2023, published 2026).

Test system: Ly6Chi monocytes
Settings: literature reports, after trabectedin administration

COc1cc2c(cc1O)CCN[C@]21CS[C@@H]2c3c(OC(C)=O)c(C)c4c(c3[C@H](COC1=O)N1[C@@H]2[C@H]2c3c(cc(C)c(OC)c3O)C[C@@H]([C@@H]1O)N2C)OCO4 [trabectedin]
number of Ly6Chi monocytes in the peripheral blood of mice: decreases
